Like-named read-outs stand apart in the source and are kept apart here.
Key:
[1] = target: T1, human chemokine receptor CCR1 (Homo sapiens, UniProt P32246); assay: Cellular NanoBiT β-arrestin recruitment assay; assay type: cell-based
T1 construct: expressed in transfected cells; host or cells: HEK293T, transient
T1 sequence (P32246 1-355): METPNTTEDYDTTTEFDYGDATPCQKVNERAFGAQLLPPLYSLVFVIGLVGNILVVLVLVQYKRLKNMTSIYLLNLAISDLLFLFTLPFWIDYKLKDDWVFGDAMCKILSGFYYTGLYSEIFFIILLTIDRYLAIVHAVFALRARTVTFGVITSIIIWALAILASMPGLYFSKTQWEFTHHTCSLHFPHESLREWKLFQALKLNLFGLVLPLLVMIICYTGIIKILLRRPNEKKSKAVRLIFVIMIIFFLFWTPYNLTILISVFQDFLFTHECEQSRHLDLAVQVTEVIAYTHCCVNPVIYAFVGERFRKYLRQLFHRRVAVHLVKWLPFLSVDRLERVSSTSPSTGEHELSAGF
Experimental: (§1) CCR1 and CCR2 was monitored using a nanoluciferase complementation -based assay (NanoBiT, Promega). 17-19 5 x 10^6 HEK293T cells were plated in 10 cm dishes and cultured for 24 h before transfection with vectors encoding for the human chemokine receptor CCR1 or CCR2 C-terminally fused with SmBiT and β-arrestin 2 N-terminally fused with LgBiT. 24 h after transfection cells were harvested, distributed into white 96-well plates (5 × 10^4 cells per well) and incubated for 1 h at 37 °C with compound 23 at concentrations ranging from 10 nM to 10 µM. The endogenous chemokine ligand CCL5 (3 nM, for CCR1) or CCL2 (10 nM, for CCR2) was then added, and luminescence generated upon nanoluciferase complementation in the presence of coelenterazine H was measured with a Mithras LB940 luminometer (Berthold Technologies) for 20 min. […]
(§2) Finally, the top 5% of the identified hits were subsequently docked to a homology model of CCR1 (vide infra). After visual examination of the obtained binding modes 24 hit compounds were identified for further investigation .
(§3) Molecular docking: For the docking studies in the course of our virtual screening campaign, the CCR1 protein was […]
27, 28 CCR1 structure was optimized using the Quickprep and structure preparation wizard in MOE 24 using CHARMM27 forcefield. The protein was saved in mol2 format and loaded in GOLD.25, 26 The amino acids defining the IABS were listed in a text file to define the docking cavity. 50 GA runs were performed for docking CCR2-RA-[R] (4-[R]) and SN_12 (43), with the generated solutions clustered based on their RMSD with the threshold set to 0.75 Å using the complete linkage method. Docking runs were performed using ChemScore. Flexibility of amino acids Lys63ICL1, Arg1313.50, Leu2406.36 and Arg3078.49 was taken in consideration in the docking runs, with conformational sampling of their side chains being done by the rotamer libraries implemented in GOLD.25, 26 For the docking studies with our ligand-linker conjugates (Figure S1), molecular ligand structures were geometry optimized as neutral molecules by means of Avogadro (Version 1.2.0)29 using the Universal Force Field (UFF) and the Steepest Decent Algorithm until convergence (ΔE = 0).
CCR113 was used for docking. The compounds were docked by means of AutoDock Vina 1.1.2.30, 31 An exhaustiveness value of 8 and a search space of 22 x 22 x 22 Å³ was applied around the unliganded intracellular allosteric binding site of CCR1. Twenty docking poses were generated for each ligand and inspected manually and according to the docking score.

[2] = target: vasopressin-2 receptor (V2R); design: method as in PMID 17435162; details: cited from earlier work
[3] = target: T2, human chemokine receptor CCR2 (Homo sapiens, UniProt P41597); assay: Cellular NanoBiT β-arrestin recruitment assay; assay type: cell-based; details: in the presence of CCL2 (10 nM), HEK293T cells
T2 construct: expressed in transfected cells; host or cells: HEK293T, transient
Experimental: (PerkinElmer, Groningen, NL).
as §1, with “Cellular NanoBiT β-arrestin recruitment assays: Chemokine-induced β-arrestin-2 recruitment to chemokine receptors CCR1 and” for “CCR1 and”
as §2, §3
27, 28 CCR1 structure was optimized using the Quickprep and structure preparation wizard in MOE 24 using CHARMM27 forcefield. The protein was saved in mol2 format and loaded in GOLD.25, 26 The amino acids defining the IABS were listed in a text file to define the docking cavity. 50 GA runs were performed for docking CCR2-RA-[R] (4-[R]) and SN_12 (43), with the generated solutions clustered based on their RMSD with the threshold set to 0.75 Å using the complete linkage method. Docking runs were performed using ChemScore. […]

T2 sequence (P41597 whole entry): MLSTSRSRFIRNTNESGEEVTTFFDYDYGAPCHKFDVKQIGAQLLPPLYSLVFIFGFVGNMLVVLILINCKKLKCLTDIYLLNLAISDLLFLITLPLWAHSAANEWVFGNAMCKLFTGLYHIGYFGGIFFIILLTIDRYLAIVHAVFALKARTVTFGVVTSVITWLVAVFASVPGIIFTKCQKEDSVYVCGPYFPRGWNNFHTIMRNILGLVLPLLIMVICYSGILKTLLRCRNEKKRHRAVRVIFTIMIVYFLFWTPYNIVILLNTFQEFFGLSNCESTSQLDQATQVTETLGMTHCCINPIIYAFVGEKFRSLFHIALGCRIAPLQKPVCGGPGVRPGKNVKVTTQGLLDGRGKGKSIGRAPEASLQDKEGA

IC50 ([1]; absence of agonist, read-out: IC50 (CCR1), basal β-arrestin recruitment): 6 µM
IC50 ([1]; absence of agonist, read-out: pIC50(CCR1), basal β-arrestin recruitment (converted)): 6.17 µM
CCR1 over CCR2 selectivity, β-arrestin recruitment ([1]; cellular NanoBiT assays): > 10 fold
IC50 ([1]; in the presence of CCL5 (3 nM), HEK293T cells, read-out: IC50 (CCR1), β-arrestin recruitment): 14.2 µM
IC50 ([3]; read-out: IC50 (CCR2), β-arrestin recruitment): 186 µM
IC50 ([3]; read-out: pIC50(CCR2), β-arrestin recruitment (converted)): 195 µM
SMILES: O=C(C1=C(O)C(=O)N(CCc2ccc(O)cc2)C1c1ccc(F)cc1)c1ccccc1 (racemic) [compound 23]
Ki [2]: ~0.07 µM

From paper PMC11249626, “Fluorophore-Labeled Pyrrolones Targeting the Intracellular Allosteric Binding Site of the Chemokine Receptor CCR1” (ACS Pharmacology & Translational Science, 2024)
